Laboratory results taken from PubChem BioAssay AID1996.
≈ marks a conversion by molar mass, not a printed value.

Details: buffer; pH 7.4; 200.0 µM

Row | SMILES | solubility kinetic [µg/mL]
1 | O=C(CN1CCCCC1)n1c2ccccc2c2ccccc21 | 24.3 (≈ 83.1 µM)
2 | COc1ccccc1NC(=O)CSc1nncs1 | > 42.2
3 | Nc1ccc(-c2cn3cccnc3n2)cc1 | > 31.5
4 | COc1ccc(/C=C/C(=O)NC(=S)N2CCCCC2)cc1OC | > 50.2
5 | NS(=O)(=O)c1ccc(NC(=O)COC(=O)CCCN2C(=O)c3cccc4cccc(c34)C2=O)cc1 | 8.8 (≈ 17.8 µM)
6 | Nc1cc(=O)[nH]c(SCC(=O)Nc2cc(S(=O)(=O)N3CCCCCC3)ccc2Cl)n1 | 5.4 (≈ 11.4 µM)
7 | COc1ccc(-c2csc(N(C)C(=O)c3ccco3)n2)cc1 | < 0.3
8 | O=C1[C@@H]2CSCN2C(=O)CN1Cc1cccc(C(F)(F)F)c1 | 44 (≈ 133 µM)
9 | CCOc1ccc(NC(=O)N2CC(C)OC(C)C2)cc1 (centres undefined) | > 41.8
10 | CC1CCCC(C)N1C(=O)COC(=O)c1ccc([N+](=O)[O-])o1 (centres undefined) | > 46.5
11 | CCOC(=O)c1sc(Nc2ccc(OCC)cc2)nc1C | 0.9 (≈ 2.94 µM)
12 | COc1ccc([N+](=O)[O-])cc1NC(=O)C1(c2ccccc2)CCOCC1 | 6.7 (≈ 18.8 µM)
13 | C=CCn1c(SCC(=O)NC2(C)CCS(=O)(=O)C2)nc2ccccc21 (centres undefined) | > 56.9
14 | COc1cc(N2C(=O)CC(=O)NC2=O)cc(OC)c1OC | 40.7 (≈ 138 µM)
15 | Cc1ccccc1OCC(=O)Nc1cccc(Cl)c1C | < 0.6
16 | N#CCCN(Cc1cccnc1)C(=S)NCc1ccco1 | > 45.1
17 | COc1ccccc1OC(C)C(=O)N1CC(=O)Nc2ccccc21 (centres undefined) | > 49
18 | COc1ccc(-c2nc(C)c(C(C)=O)n2O)cc1[N+](=O)[O-] | 42.3 (≈ 145 µM)
19 | Cc1ccc(SCCSc2nc(C)cc(=O)[nH]2)cc1 | 2.1 (≈ 7.18 µM)
20 | Cc1ccc(NC(=O)CN(C)C(=O)CSc2nccn2C)cc1 | > 49.9
21 | COc1ccc(C(CCNCc2ccc(OC(C)C)cc2)C(C)C)cc1 (centres undefined) | 49.4 (≈ 139 µM)
22 | COc1ccc(C(C)(C)C)cc1NC(=O)C1CC(=O)N(C2CCCC2)C1 (centres undefined) | > 53.8
23 | CC(=O)Nc1ccc(S(=O)(=O)Nc2cccc3cccnc23)cc1 | > 51.2
24 | Cc1c(C(=O)NC2CCOC2)oc2c(F)cccc12 (centres undefined) | > 39.5

Row | SMILES | solubility kinetic [µg/mL]
25 | O=C(COc1ccc2ccccc2c1)Nc1ccccc1C(=O)O | > 48.2
26 | O=C(NCCNc1ccc([N+](=O)[O-])cc1)c1cc(F)c(F)cc1Cl | 2 (≈ 5.62 µM)
27 | CC(C)C(=O)NC(CC(=O)O)c1ccccc1 (centres undefined) | > 35.3
28 | COc1ccccc1OCCn1c(SCC(=O)O)nc2ccccc21 | > 53.8
29 | Cc1c(C(=O)N2CCOCC2)sc(NC(=O)CCl)c1C#N | > 49.2
30 | COc1ccc(Nc2nc3nonc3nc2N2CCCCC2)cc1 | 5.3 (≈ 16.2 µM)
31 | CCCCCN1C(C)=CC(=C(C#N)C#N)C=C1C | 3.3 (≈ 13.7 µM)
32 | O=C(CCC1CCCC1)NCCCNC(=O)CCC1CCCC1 | 36.2 (≈ 112 µM)
33 | O=C(CCCOC(=O)c1cccnc1Cl)c1ccc(Br)cc1 | 6.6 (≈ 17.2 µM)
34 | CC(=O)CCc1ccc(OCCCOc2cccc3cccnc23)cc1 | 25.5 (≈ 73 µM)
35 | CC1(C)C2CCC1(C)C(NC(=O)/C=C/c1ccccc1)C2 (centres undefined) | 8.9 (≈ 31.4 µM)
36 | S=c1nc(NCc2ccc3c(c2)OCO3)c2ccccc2[nH]1 | 0.6 (≈ 1.93 µM)
37 | COc1ccc(CCC(=O)OCC(=O)NC(=O)c2ccc(Cl)cc2)cc1 | 7.2 (≈ 19.2 µM)
38 | COc1ccccc1Oc1ccnc2cc(Cl)ccc12 | 9.1 (≈ 31.8 µM)
39 | CN(C)C(=O)COc1ccc(Oc2ccccc2)cc1 | 25.7 (≈ 94.7 µM)
40 | CSc1sccc1/C=C(/C#N)C(=O)c1ccco1 | 22.6 (≈ 82.1 µM)
41 | O=C(CC1NCCN(Cc2ccccc2)C1=O)Nc1ccccc1 (centres undefined) | 41.5 (≈ 128 µM)
42 | CCOC(=O)N1CCN(C(=O)c2cc3cc(Cl)ccc3[nH]2)CC1 | 7 (≈ 20.8 µM)
43 | CCCCN(CC(=O)NCc1ccc(F)cc1)C(=O)c1ccco1 | 48.5 (≈ 146 µM)
44 | CCCCNC(=O)c1cc2c(C)cc(C)cc2[nH]1 | 2.2 (≈ 9 µM)
45 | NS(=O)(=O)Cc1noc2ccccc12 | > 31.8
46 | CCOC(=O)c1csc(-c2ccc([N+](=O)[O-])cc2)n1 | 5.6 (≈ 20.1 µM)
47 | CCCCCNC(=O)c1ccc2c(c1)ncn2-c1ccc(OC)cc1 | 26.9 (≈ 79.7 µM)
48 | COc1ccc(COC(=O)C2=C(C)NC(=O)NC2c2ccc(F)cc2)cc1 (centres undefined) | 3 (≈ 8.1 µM)

Row | SMILES | solubility kinetic [µg/mL]
49 | Cc1ccc(CSc2[nH]c(=O)ncc2C)cc1 | 11 (≈ 44.7 µM)
50 | COc1ccc(CC(=O)OC(C)C(=O)Nc2ccc(S(N)(=O)=O)cc2)cc1 (centres undefined) | > 58.9
51 | COC(=O)C1=C(C(=O)OC)SC(=C2C(=S)C(C)(C)N(C(=O)C(C)C)c3ccccc32)S1 | < 1
52 | Cc1nc(NC(=O)CCl)sc1C(=O)N(C)C | > 39.3
53 | COC(=O)c1ccc(CNC(=O)C23CC4CC(CC(C4)C2)C3)cc1 | 6.2 (≈ 18.9 µM)
54 | Cc1ccc(S(=O)(=O)CCC(=O)Nc2cccc(Cl)c2)cc1 | 23.9 (≈ 70.7 µM)
55 | CC(=O)C(c1ccccc1)C(c1ccccc1)C(C)[N+](=O)[O-] (centres undefined) | < 0.6
56 | O=C(O)/C=C\C(=O)NCc1cccnc1 | > 30.9
57 | CC(C)(C)OC(=O)N1CCC(CNC(=O)Nc2ccccc2)CC1 | > 50
58 | O=C(COC(=O)c1ccc(N2CCCC2=O)cc1)c1ccccc1 | 3.7 (≈ 11.4 µM)
59 | CCOC(=O)c1ccc(NS(=O)(=O)c2ccc3oc(=O)[nH]c3c2)cc1 | > 54.4
60 | COc1cc2ccccc2cc1C(=O)Nc1ccc2oc(=O)ccc2c1 | < 0.7
61 | Cl.O=C(CCl)N1CCN(CC(=O)N2CCCC2)CC1 | > 46.5
62 | CN1CCN(c2ccc(S(=O)(=O)N3CCOCC3)cc2NC(=O)CSCc2ccccc2)CC1 | > 75.7
63 | O=C(Nc1cccnc1)c1cc2c(s1)-c1ccccc1OC2 | 0.8 (≈ 2.59 µM)
64 | O=C(O)c1cccc([N+](=O)[O-])c1C(=O)Nc1cccc2ccccc12 | 39.5 (≈ 117 µM)
65 | Cc1ccccc1CCN1CCCC(CN(C)CC(C)(C)C)C1 (centres undefined) | 15 (≈ 47.4 µM)
66 | CCOC(=O)N1CCN(C(=O)C2CCN(C(=O)Nc3ccccc3)CC2)CC1 | > 58.3
67 | CN(C)c1ccc(NC(=S)c2ccc3ccccc3n2)cc1 | < 0.2
68 | CC(=O)Nc1scc(C)c1-c1nc2ccccc2s1 | < 0.3
69 | CC(=O)Nc1cccc(C(=O)Nc2nc(C)cs2)c1 | 37.4 (≈ 136 µM)
70 | Cc1csc(N)n1 | 10.8 (≈ 94.6 µM)
71 | COc1ccc(CCNC(=O)c2cc(C)oc2C)cc1 | > 41
72 | Cc1ccc[n+](CC(=O)Nc2ccc(C)c(C)c2)c1.[Cl-] | > 43.6

Row | SMILES | solubility kinetic [µg/mL]
73 | Cc1ccc(N=Cc2c(O)c3ccccc3oc2=O)c(C)c1 | < 0.6
74 | Cn1nc(C(=O)NNC(=O)c2cccc(Cl)c2)ccc1=O | > 46
75 | O=C(O)c1ccc(N/C(=N\S(=O)(=O)c2ccc(Cl)cc2)c2ccccc2)cc1 | 56.3 (≈ 136 µM)
76 | COc1ccc(CCCC(=O)NCCc2ccccc2)c(C)c1 | 10.5 (≈ 33.7 µM)
77 | CC1CCC(NS(=O)(=O)c2ccc(Cl)nc2)CC1 (centres undefined) | 33.9 (≈ 117 µM)
78 | CC(=O)Nc1ccc2c(c1)ncn2-c1ccccc1 | > 37.7
79 | CN(CC1COc2ccccc2O1)C(=O)c1ccc(N(C)C)cc1 (centres undefined) | > 49
80 | COc1ccc(N(C(C)C(=O)N2CCCC2)S(C)(=O)=O)cc1 (centres undefined) | > 49
81 | O=C1COc2ccc(S(=O)(=O)NCc3ccccc3)cc2N1 | 11.6 (≈ 36.4 µM)
82 | CC(=O)N(C1=NCCCS1)c1ccc(Cl)cc1 | 32.8 (≈ 122 µM)
83 | O=C1CC(NCCc2ccccc2)C(=O)N1CCc1ccccc1 (centres undefined) | 46.1 (≈ 143 µM)
84 | CC1CCN(CCCNc2cc(NCCO)c([N+](=O)[O-])c3nonc23)CC1 | > 56.8
85 | CCc1ccc(CNc2ccc3c(c2)ncn3CC)cc1 | 37.3 (≈ 134 µM)
86 | CN(Cc1nc(-c2cnccn2)no1)Cc1cccc2ccccc12 | 48.9 (≈ 148 µM)
87 | NC(=O)c1oc2ccccc2c1NC(=O)C1COc2ccccc2O1 (centres undefined) | < 0.4
88 | COc1cccc(CN2CCN(c3ccc(F)cc3)C2=O)c1 | 29.9 (≈ 99.6 µM)
89 | O=C(Cc1ccc2ccccc2c1)Nc1ccccc1Br | < 0.7
90 | O=C(Cn1ccccc1=O)NCc1ccc(F)cc1 | 24.1 (≈ 92.6 µM)
91 | N#CC(C(=O)c1ccccc1Cl)=C1SCCCS1 | 9.4 (≈ 31.8 µM)
92 | CCn1c(NC(=O)C(C)C)c2ccccc2nc1=O | > 38.9
93 | CCOC(=O)c1cc(-c2csc(Nc3c(C)cc(C)cc3C)n2)on1 | 0.4 (≈ 1.12 µM)
94 | NCCCCCC(=O)O | 0.9 (≈ 6.86 µM)
95 | CCOc1ccc(Nc2ncnc3ccc([N+](=O)[O-])cc23)cc1 | 4.1 (≈ 13.2 µM)
96 | O=C1OCCN1S(=O)(=O)Nc1ccccc1 | > 36.3

Row | SMILES | solubility kinetic [µg/mL]
97 | CCOc1ccc(NC(=S)N2CCC(NC(=O)c3ccccc3)CC2)cc1 | 4.2 (≈ 11 µM)
98 | Cn1cccc1C(=O)OCC(=O)Nc1ccc2[nH]c(=O)[nH]c2c1 | 11.1 (≈ 35.3 µM)
99 | CC(C(=O)O)N1CCCCC1.Cl (centres undefined) | 24.3
100 | O=C(Nc1cccs1)Nc1cccnc1Cl | > 38.1
101 | O=C(Nc1cccc(S(=O)(=O)N2CCOCC2)c1)c1ccc(Cl)nc1 | > 57.3
102 | Cc1ccc(S(=O)(=O)NCCOc2cc(C)ccc2C)cc1 | 14.4 (≈ 45.1 µM)
103 | COc1ccccc1Nc1ncnc2c1c(C)c(C)n2CCO | 15.4 (≈ 49.3 µM)
104 | S=C1SCN(Cc2cccnc2)CN1Cc1cccnc1 | > 47.5
105 | O=C1CC(C(=O)N2CCc3ccccc32)CN1c1ccccc1 (centres undefined) | 9.2 (≈ 30 µM)
106 | O=C(Cc1ccc(Cl)cc1)NNC(=O)C1CC=CCC1C(=O)O (centres undefined) | > 50.5
107 | CSc1ccccc1Nc1ncnc(N)n1 | 25.8 (≈ 111 µM)
108 | CCOc1ccccc1NC(=S)NCCCn1ccnc1 | 42.1 (≈ 138 µM)
109 | N=c1c2ccccc2nc2n1CCCCCCCCCCC2 | 34.6 (≈ 116 µM)
110 | CCCCn1c(N)c(N(CC)C(=O)c2cccc(F)c2)c(=O)[nH]c1=O | 52.1 (≈ 150 µM)
111 | NC(=O)c1c(NC(=O)c2ccc(F)cc2)sc2c1CCC2 | 0.7 (≈ 2.3 µM)
112 | O=C(CCS(=O)(=O)c1ccccc1)N1CCCc2ccccc21 | 49.2 (≈ 149 µM)
113 | CN(Cc1ccc2c(c1)OCCO2)C(=O)CSc1ncnc2sccc12 | 41.8 (≈ 108 µM)
114 | COc1ccc(C(=O)OCC(=O)c2ccc3c(c2)NC(=O)CO3)cc1[N+](=O)[O-] | 2.7 (≈ 6.99 µM)
115 | Cc1noc(C)c1C(=O)N1CCC(C(=O)c2ccc(F)cc2F)CC1 | > 52.3
116 | Cc1ccccc1NC(=S)NC(=O)C1CCCCC1 | 1 (≈ 3.62 µM)
117 | O=C(COC(=O)c1cc[n+]([O-])cc1)NC(=O)c1ccc(OC(F)F)cc1 | > 54.9
118 | CC(=O)C1=C(O)C(=O)N(c2ccc(O)cc2)C1c1cccc(F)c1 (centres undefined) | > 49.1
119 | O=C(Cn1c(=O)[nH]c2ccccc2c1=O)Nc1cccnc1 | > 44.4
